For 24 compounds, IC50 results are on record in US8853230B2, “Inhibitors of JAK” (Portola Pharmaceuticals, Inc., priority 2009, dated 2014).

Bounds are passed on as bounds.

Assay type in all cases: biochemical
Test [1] deals with T1, JAK2 (Homo sapiens, UniProt O60674).
T1 construct: 5 μl of catalytic domain recombinant Kinase enzyme+Tyr peptide substrate (Invitrogen, Calif.); purchased Invitrogen
The test is described as follows: Z'-LYTE kinase assay, JAK2 tyrosine phosphorylation activity. Summed up:
(§1)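 FRET-based Z′-LYTE format with recombinant catalytic-domain kinases and Tyr6 peptide substrate; compounds in 1% DMSO final, duplicate wells. Kinase reaction with ATP runs 1 h at room temperature, then protease development 1 h; fluorescence read at ex 400, em 445/520 nm. IC50 from 4-parameter logistic fit of percent phosphorylation versus uninhibited.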

For test [2], the target named is T2, JAK1 (Homo sapiens, UniProt P23458).
T2 construct: 5 μl of catalytic domain recombinant Kinase enzyme+Tyr peptide substrate (Invitrogen, Calif.); purchased Invitrogen
T2 sequence (P23458 875-1153 limits assumed): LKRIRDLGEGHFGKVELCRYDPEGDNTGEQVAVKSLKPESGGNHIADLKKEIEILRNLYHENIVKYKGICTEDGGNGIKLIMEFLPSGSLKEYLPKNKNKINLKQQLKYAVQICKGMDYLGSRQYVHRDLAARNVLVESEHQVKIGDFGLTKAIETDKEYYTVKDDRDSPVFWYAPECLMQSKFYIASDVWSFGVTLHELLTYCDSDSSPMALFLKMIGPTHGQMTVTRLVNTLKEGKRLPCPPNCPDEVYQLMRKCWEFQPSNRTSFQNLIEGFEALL
Kind of test: Z'-LYTE kinase assay, JAK1 tyrosine phosphorylation activity. As to conditions: read-out: JAK 1 IC50. Put shortly:
as §1

Test [3] addresses T3, JAK3 (Homo sapiens, UniProt P52333).
T3 construct: 5 μl of catalytic domain recombinant Kinase enzyme+Tyr peptide substrate (Invitrogen, Calif.); purchased Invitrogen
Kind of test: Z'-LYTE kinase assay, JAK3 tyrosine phosphorylation activity. Put shortly: as §1

For test [4], the target named is T4, TYK2 (Homo sapiens, UniProt P29597).
T4 construct: 5 μl of catalytic domain recombinant Kinase enzyme+Tyr peptide substrate (Invitrogen, Calif.); purchased Invitrogen
T4 sequence (P29597 897-1176 limits assumed): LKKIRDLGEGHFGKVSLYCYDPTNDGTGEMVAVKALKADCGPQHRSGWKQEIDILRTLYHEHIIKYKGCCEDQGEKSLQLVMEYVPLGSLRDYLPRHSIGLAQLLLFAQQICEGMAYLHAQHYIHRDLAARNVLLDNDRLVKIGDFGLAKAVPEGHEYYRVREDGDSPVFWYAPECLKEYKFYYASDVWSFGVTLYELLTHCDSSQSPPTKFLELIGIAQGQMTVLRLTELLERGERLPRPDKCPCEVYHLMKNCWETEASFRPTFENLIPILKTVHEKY
Kind of test: Z'-LYTE kinase assay, TYK2 tyrosine phosphorylation activity. Summed up: as §1

For orientation: IC50 means the concentration at which inhibition is half-maximal.

T1 sequence (O60674 849-1124 limits assumed): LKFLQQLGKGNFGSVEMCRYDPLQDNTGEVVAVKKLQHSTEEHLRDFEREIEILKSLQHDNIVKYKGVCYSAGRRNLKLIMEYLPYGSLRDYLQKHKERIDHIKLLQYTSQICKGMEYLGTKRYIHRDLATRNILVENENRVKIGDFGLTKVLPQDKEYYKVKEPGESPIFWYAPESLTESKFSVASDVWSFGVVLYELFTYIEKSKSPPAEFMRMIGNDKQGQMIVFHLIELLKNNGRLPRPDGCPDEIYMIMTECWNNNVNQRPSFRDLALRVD
T3 sequence (P52333 822-1111 limits assumed): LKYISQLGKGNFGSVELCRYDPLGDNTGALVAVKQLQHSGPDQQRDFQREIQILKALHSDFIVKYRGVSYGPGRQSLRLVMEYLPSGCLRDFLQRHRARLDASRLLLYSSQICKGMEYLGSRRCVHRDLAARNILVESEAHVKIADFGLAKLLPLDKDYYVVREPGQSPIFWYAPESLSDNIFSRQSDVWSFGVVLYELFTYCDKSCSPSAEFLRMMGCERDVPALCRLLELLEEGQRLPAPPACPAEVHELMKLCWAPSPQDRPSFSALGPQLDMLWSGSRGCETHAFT

With `CCn1ccc2c(Nc3nc(Nc4cccc(NC(C)=O)c4)ncc3C(N)=O)cccc21` [Example 185, 2-(3-acetamidophenylamino)-4-(1-ethyl-1H-indol-4-ylamino)pyrimidine-5-carboxamide], the half-maximal inhibitory concentration (IC50) lay in the range of 10 to 100 nM in test [1], 10 to 100 nM in test [2], 1 to 10 nM in test [3] and 1 to 10 nM in test [4].
Regarding `CC(=O)Nc1cccc(Nc2ncc(C(N)=O)c(Nc3cccc4nn(C)cc34)n2)c1` [Example 186, 2-(3-acetamidophenylamino)-4-(2-methyl-2H-indazol-4-ylamino)pyrimidine-5-carboxamide], the IC50 was 10 to 100 nM in test [1], over 1000 nM in test [2], 10 to 100 nM in test [3] and over 1000 nM in test [4].
For `CC(=O)Nc1cccc(Nc2ncc(C(N)=O)c(NCc3ccccn3)n2)c1` [Example 187, 2-(3-acetamidophenylamino)-4-(pyridin-2-ylmethylamino)pyrimidine-5-carboxamide], the concentration for half-maximal inhibition (IC50) in test [1] was 10 to 100 nM; in test [2], 100 to 1000 nM; in test [3] it was 10 to 100 nM; in test [4], 10 to 100 nM.
In the case of `CC(=O)Nc1cccc(Nc2ncc(C(N)=O)c(NCc3cccnc3)n2)c1` [Example 188, 2-(3-acetamidophenylamino)-4-(pyridin-3-ylmethylamino)pyrimidine-5-carboxamide], the half-maximal inhibitory concentration (IC50) in test [1] lay in the range of 10 to 100 nM; in test [2], 100 to 1000 nM; in test [3], 1 to 10 nM; in test [4], 10 to 100 nM.
With `CC(=O)Nc1cccc(Nc2ncc(C(N)=O)c(NCc3ccncc3)n2)c1` [Example 189, 2-(3-acetamidophenylamino)-4-(pyridin-4-ylmethylamino)pyrimidine-5-carboxamide], the 50% inhibitory concentration (IC50) in test [1] lay in the range of 100 to 1000 nM; in test [2], 100 to 1000 nM; in test [3], 10 to 100 nM; in test [4] it was 10 to 100 nM.
`CC(=O)Nc1cccc(Nc2ncc(C(N)=O)c(Nc3cccc4c3cnn4C)n2)c1` [Example 191, 2-(3-acetamidophenylamino)-4-(1-methyl-1H-indazol-4-ylamino)pyrimidine-5-carboxamide]: the 50% inhibitory concentration (IC50) in test [1] fell in the range of 10 to 100 nM; in test [2] it was 10 to 100 nM; in test [3], 1 to 10 nM; in test [4], 10 to 100 nM.
`CC(=O)Nc1cccc(Nc2ncc(C(N)=O)c(Nc3cccc4nsnc34)n2)c1` [Example 192, 2-(3-acetamidophenylamino)-4-(benzo[c][1,2,5]thiadiazo-4-ylamino)pyrimidine-5-carboxamide]: the IC50 in test [1] is 10 to 100 nM; in test [2], over 1000 nM; in test [3] it was 1 to 10 nM; in test [4], 10 to 100 nM.
`CC(=O)Nc1cccc(Nc2ncc(C(N)=O)c(Nc3ccc(S(C)(=O)=O)cc3)n2)c1` [Example 197]: the IC50 in test [1] was 10 to 100 nM; in test [2] it was over 1000 nM; in test [3], 10 to 100 nM; in test [4] it was 10 to 100 nM.
Take `CC(=O)Nc1cccc(Nc2ncc(C(N)=O)c(Nc3ccc(N4CCOCC4)c(F)c3)n2)c1` [Example 198]: the half-maximal inhibitory concentration (IC50) was 10 to 100 nM in test [1], over 1000 nM in test [2], 10 to 100 nM in test [3] and 10 to 100 nM in test [4].
For `CC(=O)Nc1cccc(Nc2ncc(C(N)=O)c(Nc3cccc(-c4ncccn4)c3)n2)c1` [Example 199], the IC50 in test [1], in test [2], in test [3] and in test [4] was 10 to 100 nM in each case.
On to `CNC(=O)Nc1ccc(F)c(Nc2ncc(C(N)=O)c(NCc3ccccc3)n2)c1` [Example 200, 4-(benzylamino)-2-(2-fluoro-5-(3-methylureido)phenylamino)pyrimidine-5-carboxamide], for which the IC50 in test [1] is over 1000 nM; in test [2], over 1000 nM; in test [3], 10 to 100 nM; in test [4], 100 to 1000 nM.
On to `CN(C)C(=O)Nc1ccc(F)c(Nc2ncc(C(N)=O)c(NCc3ccccc3)n2)c1` [Example 201, 4-(benzylamino)-2-(5-(3,3-dimethylureido)-2-fluorophenylamino)pyrimidine-5-carboxamide], for which the half-maximal inhibitory concentration (IC50) in test [1] is over 1000 nM; in test [2] it was over 1000 nM; in test [3] it was 10 to 100 nM; in test [4], 100 to 1000 nM.
Regarding `NC(=O)c1cnc(Nc2cc(NC(=O)N3CCCC3)ccc2F)nc1NCc1ccccc1` [Example 204, 4-(benzylamino)-2-(2-fluoro-5-(pyrrolidine-1-carboxamido)phenylamino)pyrimidine-5-carboxamide], the 50% inhibitory concentration (IC50) in test [1], in test [2], in test [3] and in test [4] was 100 to 1000 nM throughout.
For the compound `C[C@@H](Nc1nc(Nc2ccc(Cl)c(NC(=O)N3CCCCC3)c2)ncc1C(N)=O)c1ccccc1` [Example 205, (R)-2-(4-chloro-3-(piperidine-1-carboxamido)phenylamino)-4-(1-phenylethylamino)pyrimidine-5-carboxamide], the IC50 is 100 to 1000 nM in test [1], over 1000 nM in test [2], 10 to 100 nM in test [3] and 100 to 1000 nM in test [4].
For the compound `NC(=O)c1cnc(Nc2cccc(NC(=O)[C@@H]3CCCO3)c2)nc1NCc1ccccc1` [Example 206, (S)-4-(benzylamino)-2-(3-(tetrahydrofuran-2-carboxamido)phenylamino)pyrimidine-5-carboxamide], the concentration for half-maximal inhibition (IC50) in test [1] is 10 to 100 nM; in test [2], 10 to 100 nM; in test [3], 1 to 10 nM; in test [4], 1 to 10 nM.
In the case of `C[C@@H](Nc1nc(Nc2cccc(NC(=O)[C@@H]3CCCO3)c2)ncc1C(N)=O)c1ccccc1` [Example 207, 4-((R)-1-phenylethylamino)-2-(3-((S)-tetrahydrofuran-2-carboxamido)phenylamino)pyrimidine-5-carboxamide], the IC50 in test [1] was in the range of 10 to 100 nM; in test [2] it was 100 to 1000 nM; in test [3] it was 1 to 10 nM; in test [4], 10 to 100 nM.
As to `C[C@@H](Nc1nc(Nc2cccc(NC(=O)N3CCC(O)CC3)c2)ncc1C(N)=O)c1ccccc1` [Example 215], the IC50 in test [1] was 10 to 100 nM; in test [2], 10 to 100 nM; in test [3], 1 to 10 nM; in test [4], 10 to 100 nM.
On to `C[C@@H](Nc1nc(Nc2cccc(NC(=O)N3CCCCC3)c2)ncc1C(N)=O)c1ccccc1` [Example 220, (R)-4-(1-phenylethylamino)-2-(3-(piperidine-1-carboxamido)phenylamino)pyrimidine-5-carboxamide], for which the 50% inhibitory concentration (IC50) in test [1] lay within 10 to 100 nM; in test [2], 100 to 1000 nM; in test [3] it was 1 to 10 nM; in test [4], 10 to 100 nM.
Regarding `CC(=O)Nc1cc(Nc2ncc(C(N)=O)c(NCc3cccc(F)c3)n2)ccc1OCCN1CCCC1` [Example 223, 2-(3-acetamido-4-(2-(pyrrolidin-1-yl)ethoxy)phenylamino)-4-(3-fluorobenzylamino)pyrimidine-5-carboxamide], the half-maximal inhibitory concentration (IC50) in test [1] was 1 to 10 nM; in test [2], 10 to 100 nM; in test [3], 1 to 10 nM; in test [4], 10 to 100 nM.
For the compound `CC(=O)Nc1cc(Nc2ncc(C(N)=O)c(Nc3cccc4nn(C)cc34)n2)ccc1OCCN1CCCC1` [Example 224, 2-(3-acetamido-4-(2-(pyrrolidin-1-yl)ethoxy)phenylamino)-4-(2-methyl-2H-indazol-4-ylamino)pyrimidine-5-carboxamide], the IC50 in test [1] lay within 10 to 100 nM; in test [2], 100 to 1000 nM; in test [3], 10 to 100 nM; in test [4], 100 to 1000 nM.
With `CC(=O)Nc1cccc(Nc2ncc(C(N)=O)c(NCC3CCN(C(=O)OC(C)(C)C)C3)n2)c1` (stereo not drawn) [Example 225, tert-butyl 3-((2-(3-acetamidophenylamino)-5-carbamoylpyrimidin-4-ylamino)methyl)pyrrolidine-1-carboxylate], the half-maximal inhibitory concentration (IC50) lay within 100 to 1000 nM in test [1], 100 to 1000 nM in test [2], 10 to 100 nM in test [3] and 100 to 1000 nM in test [4].
For the compound `CC(=O)Nc1cccc(Nc2ncc(C(=O)O)c(NCC3CCNC3)n2)c1` (stereo not drawn) [Example 226, 2-(3-acetamidophenylamino)-4-(pyrrolidin-3-ylmethylamino)pyrimidine-5-carboxylic acid], the half-maximal inhibitory concentration (IC50) in test [1] was 100 to 1000 nM; in test [2] it was 10 to 100 nM; in test [3], 10 to 100 nM; in test [4], 100 to 1000 nM.
`CC(=O)Nc1cc(Nc2ncc(C(N)=O)c(Nc3cccc4nsnc34)n2)ccc1OCCN1CCCC1` [Example 227, 2-(3-acetamido-4-(2-(pyrrolidin-1-yl)ethoxy)phenylamino)-4-(benzo[c][1,2,5]thiadiazo-4-ylamino)pyrimidine-5-carboxamide]: the IC50 in test [1] was 1 to 10 nM; in test [2], 10 to 100 nM; in test [3], 1 to 10 nM; in test [4], 10 to 100 nM.
`CC(=O)Nc1cc(Nc2ncc(C(N)=O)c(NCc3cccc(F)c3)n2)ccc1OCCN(C)C` [Example 228, 2-(3-acetamido-4-(2-(dimethylamino)ethoxy)phenylamino)-4-(3-fluorobenzylamino)pyrimidine-5-carboxamide]: the IC50 lay within 10 to 100 nM in test [1], 100 to 1000 nM in test [2], 1 to 10 nM in test [3] and 10 to 100 nM in test [4].
